{
  "source": "paper doi:10.1101/2021.10.07.463234v2",
  "about": "(biorxiv, 2021)",
  "note": "Where a name gives a salt, the structure may show the parent alone.",
  "data": [
    {"target": "SARS-CoV-2 Mac1 (Severe acute respiratory syndrome coronavirus 2, UniProt P0DTD1)", "test": "biochemical", "details": "100 µM; inhibitor", "units": {"%inhibition": "%"}, "values": [
      {"smiles": "O=C(NC1CCN(CCCCC2(C(=O)NCC(F)(F)F)c3ccccc3-c3ccccc32)CC1)c1ccccc1-c1ccc(C(F)(F)F)cc1", "note": "[Lomitapide Mesylate]", "%inhibition": 34.98},
      {"smiles": "CCCCc1nc(Cl)c(CO)n1Cc1ccc(-c2ccccc2-c2nnn[nH]2)cc1", "note": "[Losartan Potassium (DuP 753)]", "%inhibition": 0},
      {"smiles": "CCCCc1nc(Cl)c(CO)n1Cc1ccc(-c2ccccc2-c2nnn[nH]2)cc1", "note": "[Losartan]", "%inhibition": 18.38},
      {"smiles": "CC(C(=O)O)c1ccc(CC2CCCC2=O)cc1", "note": "(stereo not shown) [Loxoprofen Sodium]", "%inhibition": 0},
      {"smiles": "CC(C(=O)O)c1ccc(CC2CCCC2=O)cc1", "note": "(stereo not shown) [Loxoprofen]", "%inhibition": 5.364},
      {"smiles": "NCc1ccc(S(N)(=O)=O)cc1", "note": "[Mafenide Acetate]", "%inhibition": 0},
      {"smiles": "NCc1ccc(S(N)(=O)=O)cc1", "note": "[Mafenide hydrochloride]", "%inhibition": 8.456},
      {"smiles": "Cc1cccc(C)c1NC(=O)C1CCCCN1C", "note": "(stereo not shown) [Mepivacaine HCl]", "%inhibition": 2.617},
      {"smiles": "Cc1cccc(C)c1NC(=O)C1CCCCN1C", "note": "(stereo not shown) [Mepivacaine]", "%inhibition": 0},
      {"smiles": "C[C@@H](O)[C@H]1C(=O)N2C(C(=O)O)=C(S[C@@H]3CN[C@H](C(=O)N(C)C)C3)[C@H](C)[C@H]12", "note": "[Meropenem Trihydrate]", "%inhibition": 21.42},
      {"smiles": "C[C@@H](O)[C@H]1C(=O)N2C(C(=O)O)=C(S[C@@H]3CN[C@H](C(=O)N(C)C)C3)[C@H](C)[C@H]12", "note": "[Meropenem]", "%inhibition": 0}
    ]},
    {"target": "SARS-CoV-2 Mac1 (Severe acute respiratory syndrome coronavirus 2, UniProt P0DTD1)", "test": "biochemical", "details": "read-out: %inhibition", "units": {"inhibition at 100 µM": "%"}, "values": [
      {"smiles": "CC(C)(C)C#Cc1cc(N(C(=O)[C@H]2CC[C@H](C)CC2)[C@H]2CC[C@H](O)CC2)c(C(=O)O)s1", "note": "[Lomibuvir (VX-222, VCH-222)]", "inhibition at 100 µM": 2.87},
      {"smiles": "O=C(NC1CCN(CCCCC2(C(=O)NCC(F)(F)F)c3ccccc3-c3ccccc32)CC1)c1ccccc1-c1ccc(C(F)(F)F)cc1", "note": "[Lomitapide]", "inhibition at 100 µM": 17.8},
      {"smiles": "NC(=O)N1CCC(CC(=O)N2CCC([C@H]3c4ncc(Br)cc4CCc4cc(Cl)cc(Br)c43)CC2)CC1", "note": "[Lonafarnib]", "inhibition at 100 µM": 29.6},
      {"smiles": "O=C(O)c1nn(Cc2ccc(Cl)cc2Cl)c2ccccc12", "note": "[Lonidamine]", "inhibition at 100 µM": 7.38},
      {"smiles": "Cc1cccc(C)c1OCC(=O)N[C@@H](Cc1ccccc1)[C@@H](O)C[C@H](Cc1ccccc1)NC(=O)[C@H](C(C)C)N1CCCNC1=O", "note": "[Lopinavir]", "inhibition at 100 µM": 0},
      {"smiles": "CN1C(C(=O)Nc2ccccn2)=C(O)c2sc(Cl)cc2S1(=O)=O", "note": "[Lornoxicam]", "inhibition at 100 µM": 18.3},
      {"smiles": "Cc1c(F)cc(C(=O)NC2CC2)cc1-c1ccc(C(=O)NCC(C)(C)C)cn1", "note": "[Losmapimod (GW856553X)]", "inhibition at 100 µM": 0},
      {"smiles": "CCOC(=O)O[C@]1(C(=O)OCCl)CC[C@H]2[C@@H]3CCC4=CC(=O)C=C[C@]4(C)[C@H]3[C@@H](O)C[C@@]21C", "note": "[Loteprednol etabonate]", "inhibition at 100 µM": 0},
      {"smiles": "CC[C@H](C)C(=O)O[C@H]1C[C@@H](C)C=C2C=C[C@H](C)[C@H](CC[C@@H]3C[C@@H](O)CC(=O)O3)[C@H]21", "note": "[Lovastatin]", "inhibition at 100 µM": 0},
      {"smiles": "CN1CCN(C2=Nc3ccccc3Oc3ccc(Cl)cc32)CC1", "note": "[Loxapine Succinate]", "inhibition at 100 µM": 30.4},
      {"smiles": "CCCCC(F)(F)[C@@]1(O)CC[C@H]2[C@@H](CC(=O)[C@@H]2CCCCCCC(=O)O)O1", "note": "[Lubiprostone]", "inhibition at 100 µM": 13.8},
      {"smiles": "N#C/C(=C1/SC[C@@H](c2ccc(Cl)cc2Cl)S1)n1ccnc1", "note": "[Luliconazole]", "inhibition at 100 µM": 24.1},
      {"smiles": "CCCCN(CCCC)CC(O)c1cc(Cl)cc2c1-c1ccc(Cl)cc1/C2=C/c1ccc(Cl)cc1", "note": "(stereo not shown) [Lumefantrine]", "inhibition at 100 µM": 0},
      {"smiles": "CCCNS(=O)(=O)Nc1ncnc(OCCOc2ncc(Br)cn2)c1-c1ccc(Br)cc1", "note": "[Macitentan]", "inhibition at 100 µM": 10},
      {"smiles": "CC(C)OC(=O)C(C(=O)OC(C)C)=C1SC=CS1", "note": "[Malotilate]", "inhibition at 100 µM": 0.00863},
      {"smiles": "Cc1occc(=O)c1O", "note": "[Maltol]", "inhibition at 100 µM": 15.5},
      {"smiles": "COC(=O)C1=C(C)NC(C)=C(C(=O)OCCN2CCN(C(c3ccccc3)c3ccccc3)CC2)C1c1cccc([N+](=O)[O-])c1", "note": "(stereo not shown) [Manidipine 2HCl]", "inhibition at 100 µM": 0},
      {"smiles": "Cc1nnc(C(C)C)n1[C@@H]1C[C@H]2CC[C@@H](C1)N2CC[C@H](NC(=O)C1CCC(F)(F)CC1)c1ccccc1", "note": "[Maraviroc]", "inhibition at 100 µM": 24.2},
      {"smiles": "CN1CCN(c2c(F)cc3c(=O)c(C(=O)O)cn4c3c2OCN4C)CC1", "note": "[Marbofloxacin]", "inhibition at 100 µM": 18.3},
      {"smiles": "CNC(=O)[C@@H](NC(=O)[C@H](CC(C)C)[C@H](O)C(=O)NO)C(C)(C)C", "note": "[Marimastat (BB-2516)]", "inhibition at 100 µM": 3.16},
      {"smiles": "Cc1ccc(NC(=O)c2ccc(CN3CCN(C)CC3)cc2)cc1Nc1nc(-c2cccnc2)cs1", "note": "[Masitinib (AB1010)]", "inhibition at 100 µM": 7.66},
      {"smiles": "COC(=O)Nc1nc2cc(C(=O)c3ccccc3)ccc2[nH]1", "note": "[Mebendazole]", "inhibition at 100 µM": 0},
      {"smiles": "CCN(CCCCOC(=O)c1ccc(OC)c(OC)c1)C(C)Cc1ccc(OC)cc1", "note": "(stereo not shown) [Mebeverine Hydrochloride]", "inhibition at 100 µM": 5.64},
      {"smiles": "CCOC(=O)c1c(C)n(C)c2ccc(O)cc12", "note": "[Mecarbinate]", "inhibition at 100 µM": 0},
      {"smiles": "Cc1cccc(CN2CCN(C(c3ccccc3)c3ccc(Cl)cc3)CC2)c1", "note": "(stereo not shown) [Meclizine 2HCl]", "inhibition at 100 µM": 9.09},
      {"smiles": "Cc1ccc(Cl)c(Nc2ccccc2C(=O)O)c1Cl", "note": "[Meclofenamate Sodium]", "inhibition at 100 µM": 5.23},
      {"smiles": "CN(C)CCOC(=O)COc1ccc(Cl)cc1", "note": "[Meclofenoxate (Centrophenoxine) HCl]", "inhibition at 100 µM": 16.9},
      {"smiles": "Cc1cccc(C(C)c2c[nH]cn2)c1C", "note": "(stereo not shown) [Medetomidine HCl]", "inhibition at 100 µM": 21.9},
      {"smiles": "CC(=O)O[C@]1(C(C)=O)CC[C@H]2[C@@H]3C[C@H](C)C4=CC(=O)CC[C@]4(C)[C@H]3CC[C@@]21C", "note": "[Medroxyprogesterone acetate]", "inhibition at 100 µM": 26.1},
      {"smiles": "Cc1cccc(Nc2ccccc2C(=O)O)c1C", "note": "[Mefenamic Acid]", "inhibition at 100 µM": 21},
      {"smiles": "O[C@@H](c1cc(C(F)(F)F)nc2c(C(F)(F)F)cccc12)[C@H]1CCCCN1", "note": "[Mefloquine HCl]", "inhibition at 100 µM": 0},
      {"smiles": "CC(=O)O[C@]1(C(C)=O)CC[C@H]2[C@@H]3C=C(C)C4=CC(=O)CC[C@]4(C)[C@H]3CC[C@@]21C", "note": "[Megestrol Acetate]", "inhibition at 100 µM": 23.5},
      {"smiles": "CNC[C@H](O)[C@@H](O)[C@H](O)[C@H](O)CO", "note": "[Meglumine]", "inhibition at 100 µM": 15.6},
      {"smiles": "COc1ccc2[nH]cc(CCNC(C)=O)c2c1", "note": "[Melatonin]", "inhibition at 100 µM": 9.33},
      {"smiles": "Cc1cnc(NC(=O)C2=C(O)c3ccccc3S(=O)(=O)N2C)s1", "note": "[Meloxicam]", "inhibition at 100 µM": 41.6},
      {"smiles": "N[C@@H](Cc1ccc(N(CCCl)CCCl)cc1)C(=O)O", "note": "[Melphalan]", "inhibition at 100 µM": 3.44},
      {"smiles": "CC12CC3CC(C)(C1)CC(N)(C3)C2", "note": "[Memantine HCl]", "inhibition at 100 µM": 0},
      {"smiles": "CC1=CC(=O)c2ccccc2C1=O", "note": "[Menadione]", "inhibition at 100 µM": 1.18},
      {"smiles": "C[N+]1(C)CCCC(OC(=O)C(O)(c2ccccc2)c2ccccc2)C1", "note": "(stereo not shown) [Mepenzolate Bromide]", "inhibition at 100 µM": 0},
      {"smiles": "Cc1ccccc1OCC(O)CO", "note": "(stereo not shown) [Mephenesin]", "inhibition at 100 µM": 7.81},
      {"smiles": "[O-][n+]1cccc(CO)c1", "note": "[Mepiroxol]", "inhibition at 100 µM": 12.3},
      {"smiles": "C[C@H]1C[C@H]2[C@@H]3CCC4=CC(=O)C=C[C@]4(C)[C@H]3C(=O)C[C@]2(C)[C@@]1(O)C(=O)CO", "note": "[Meprednisone]", "inhibition at 100 µM": 8.14},
      {"smiles": "CCC1(c2cccc(O)c2)CCCCN(C)C1", "note": "(stereo not shown) [Meptazinol HCl]", "inhibition at 100 µM": 0},
      {"smiles": "COc1ccc(O)cc1", "note": "[Mequinol]", "inhibition at 100 µM": 0},
      {"smiles": "S=c1[nH]cnc2nc[nH]c12", "note": "[Mercaptopurine (6-MP)]", "inhibition at 100 µM": 19.8},
      {"smiles": "Nc1ccc(O)c(C(=O)O)c1", "note": "[Mesalamine]", "inhibition at 100 µM": 0},
      {"smiles": "O=S(=O)(O)CCS", "note": "[Mesna]", "inhibition at 100 µM": 24.6}
    ]}
  ]
}
